Data: article PMC11472320, “Computationally Driven Discovery of a BCR-ABL1 Kinase Inhibitor with Activity in Multidrug-Resistant Chronic Myeloid Leukemia” (Journal of Medicinal Chemistry, 2024)
Where “and” joins values, the source holds several entries; their conditions need not be identical. Identical values can stand only once. Like-named read-outs stand apart in the source and are kept apart here.

Experiments:
[1] = cited from earlier work
MDCKII-MDR1 cells = conditions: cited from earlier work
[2] = cited from earlier work; remark: listed apart in the source
[3] = Abraham ANMR value by NMR (CDCl3 vs DMSO-d6); format: physicochemical
Description: Previously, intramolecular N–H–F hydrogen bonds (HBs) have been proposed as a strategy to reduce P-gp-mediated efflux and improve passive permeability, as highlighted in the discovery of the brain-penetrant EGFR inhibitor, AZD-3759 (Figure 2A).[37]−[40] […] Consistent with this work, we conducted an NMR study of the EGFR inhibitor 7a and the BCR-ABL1 inhibitor 8a in deuterated chloroform (CDCl3) and in the more polar, HB-accepting dimethyl sulfoxide (DMSO-d6). […] This finding is further supported by the lack of ^1JNH-F coupling (≤1 Hz) in 7a and 8a, as contrasted with bona fide intramolecular HBs to fluorine, which typically have ^1JNH-F coupling constants >10 Hz as exemplified by 9 with its ^1JNH-F of 19.1 Hz.[41],[43]

PRKCI = target: T1, PRKCI (Homo sapiens, UniProt P41743); test: KINOMEScan; format: binding; conditions: read-out: Percent Control
T1 construct: purchased Eurofins DiscoverX (KINOMEscan)

PRKD1 = target: T2, PRKD1 (Homo sapiens, UniProt Q15139); test: KINOMEScan; format: binding; conditions: read-out: Percent Control
T2 construct: purchased Eurofins DiscoverX (KINOMEscan)

CDC2L5 = target: T3, CDC2L5 (Homo sapiens, UniProt Q14004); test: KINOMEScan; format: binding; conditions: read-out: Percent Control
T3 construct: purchased Eurofins DiscoverX (KINOMEscan)

PKNB(M.tuberculosis) = target: T4, PKNB(M.tuberculosis) (Mycobacterium tuberculosis, UniProt P9WI81); test: KINOMEScan; format: binding; conditions: read-out: Percent Control
T4 construct: purchased Eurofins DiscoverX (KINOMEscan)

PRKCD = target: T5, PRKCD (Homo sapiens, UniProt Q05655); test: KINOMEScan; format: binding; conditions: read-out: Percent Control
T5 construct: purchased Eurofins DiscoverX (KINOMEscan)

PRKCH = target: T6, PRKCH (Homo sapiens, UniProt P24723); test: KINOMEScan; format: binding; conditions: read-out: Percent Control
T6 construct: purchased Eurofins DiscoverX (KINOMEscan)

PRKCQ = target: T7, PRKCQ (Homo sapiens, UniProt Q04759); test: KINOMEScan; format: binding; conditions: read-out: Percent Control
T7 construct: purchased Eurofins DiscoverX (KINOMEscan)

PRP4 = target: T8, PRP4 (Homo sapiens, UniProt Q13523); test: KINOMEScan; format: binding; conditions: read-out: Percent Control
T8 construct: purchased Eurofins DiscoverX

PRKCE = target: T9, PRKCE (Homo sapiens, UniProt Q02156); test: KINOMEScan; format: binding; conditions: read-out: Percent Control
T9 construct: purchased Eurofins DiscoverX (KINOMEscan)

PRKD3 = target: T10, PRKD3 (Homo sapiens, UniProt O94806); test: KINOMEScan; format: binding; conditions: read-out: Percent Control
T10 construct: purchased Eurofins DiscoverX (KINOMEscan)

PFCDPK1(P.falciparum) = target: T11, PFCDPK1(P.falciparum) (Plasmodium falciparum, UniProt P62344); test: KINOMEScan; format: binding; conditions: read-out: Percent Control
T11 construct: purchased Eurofins DiscoverX (KINOMEscan)

PFPK5(P.falciparum) = target: T12, PFPK5(P.falciparum) (Plasmodium falciparum, UniProt P61075); test: KINOMEScan; format: binding; conditions: read-out: Percent Control
T12 construct: purchased Eurofins DiscoverX (KINOMEscan)

[4] = pH 7.4; cited from earlier work
[5] = pH 7.4; cited from earlier work; remark: listed apart in the source
[6] = set-up: method as in earlier work; conditions: human plasma; cited from earlier work
P-glycoprotein (P-gp) = conditions: Figure 1A; cited from earlier work
[7] = cited from earlier work; remark: listed apart in the source

T2 sequence (Q15139 whole entry): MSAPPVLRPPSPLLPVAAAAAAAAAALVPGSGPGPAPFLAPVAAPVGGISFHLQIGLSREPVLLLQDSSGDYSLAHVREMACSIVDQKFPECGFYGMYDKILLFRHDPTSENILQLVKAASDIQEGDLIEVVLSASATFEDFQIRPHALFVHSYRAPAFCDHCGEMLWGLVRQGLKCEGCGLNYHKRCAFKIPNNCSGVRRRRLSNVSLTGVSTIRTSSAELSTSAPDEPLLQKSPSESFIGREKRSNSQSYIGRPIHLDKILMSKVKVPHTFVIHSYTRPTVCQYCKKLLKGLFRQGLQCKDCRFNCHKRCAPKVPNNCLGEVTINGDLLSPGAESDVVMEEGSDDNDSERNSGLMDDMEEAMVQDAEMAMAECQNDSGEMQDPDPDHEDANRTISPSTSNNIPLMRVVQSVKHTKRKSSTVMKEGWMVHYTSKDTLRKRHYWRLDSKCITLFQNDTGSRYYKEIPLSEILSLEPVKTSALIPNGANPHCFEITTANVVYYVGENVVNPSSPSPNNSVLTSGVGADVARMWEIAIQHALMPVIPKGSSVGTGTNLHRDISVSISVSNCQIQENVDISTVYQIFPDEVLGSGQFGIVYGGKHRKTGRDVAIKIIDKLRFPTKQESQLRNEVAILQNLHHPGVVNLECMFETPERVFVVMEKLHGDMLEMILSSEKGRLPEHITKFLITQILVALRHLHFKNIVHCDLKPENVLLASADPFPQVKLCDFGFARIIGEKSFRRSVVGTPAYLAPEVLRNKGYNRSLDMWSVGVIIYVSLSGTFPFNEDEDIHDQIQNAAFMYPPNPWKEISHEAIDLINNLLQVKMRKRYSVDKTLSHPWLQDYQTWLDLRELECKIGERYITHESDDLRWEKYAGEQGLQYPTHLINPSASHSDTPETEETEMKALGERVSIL
T7 sequence (Q04759 whole entry): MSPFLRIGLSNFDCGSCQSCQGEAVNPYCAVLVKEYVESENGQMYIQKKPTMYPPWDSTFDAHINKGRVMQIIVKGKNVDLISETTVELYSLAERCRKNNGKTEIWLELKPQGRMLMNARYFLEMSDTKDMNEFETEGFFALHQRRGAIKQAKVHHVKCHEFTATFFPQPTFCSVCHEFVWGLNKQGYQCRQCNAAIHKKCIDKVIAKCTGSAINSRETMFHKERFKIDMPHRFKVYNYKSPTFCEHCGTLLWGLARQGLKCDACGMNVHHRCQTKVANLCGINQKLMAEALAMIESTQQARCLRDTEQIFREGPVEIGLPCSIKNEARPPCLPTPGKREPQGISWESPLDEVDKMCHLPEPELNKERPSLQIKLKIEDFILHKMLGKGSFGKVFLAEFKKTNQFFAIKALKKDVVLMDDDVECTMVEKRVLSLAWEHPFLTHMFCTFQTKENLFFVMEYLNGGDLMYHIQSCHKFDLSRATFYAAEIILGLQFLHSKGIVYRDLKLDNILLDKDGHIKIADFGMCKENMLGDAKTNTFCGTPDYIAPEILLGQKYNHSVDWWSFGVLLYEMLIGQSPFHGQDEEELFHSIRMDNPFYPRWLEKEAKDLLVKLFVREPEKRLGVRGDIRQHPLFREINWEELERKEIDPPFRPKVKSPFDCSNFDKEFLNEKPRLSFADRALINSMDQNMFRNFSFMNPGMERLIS
T3 sequence (Q14004 whole entry): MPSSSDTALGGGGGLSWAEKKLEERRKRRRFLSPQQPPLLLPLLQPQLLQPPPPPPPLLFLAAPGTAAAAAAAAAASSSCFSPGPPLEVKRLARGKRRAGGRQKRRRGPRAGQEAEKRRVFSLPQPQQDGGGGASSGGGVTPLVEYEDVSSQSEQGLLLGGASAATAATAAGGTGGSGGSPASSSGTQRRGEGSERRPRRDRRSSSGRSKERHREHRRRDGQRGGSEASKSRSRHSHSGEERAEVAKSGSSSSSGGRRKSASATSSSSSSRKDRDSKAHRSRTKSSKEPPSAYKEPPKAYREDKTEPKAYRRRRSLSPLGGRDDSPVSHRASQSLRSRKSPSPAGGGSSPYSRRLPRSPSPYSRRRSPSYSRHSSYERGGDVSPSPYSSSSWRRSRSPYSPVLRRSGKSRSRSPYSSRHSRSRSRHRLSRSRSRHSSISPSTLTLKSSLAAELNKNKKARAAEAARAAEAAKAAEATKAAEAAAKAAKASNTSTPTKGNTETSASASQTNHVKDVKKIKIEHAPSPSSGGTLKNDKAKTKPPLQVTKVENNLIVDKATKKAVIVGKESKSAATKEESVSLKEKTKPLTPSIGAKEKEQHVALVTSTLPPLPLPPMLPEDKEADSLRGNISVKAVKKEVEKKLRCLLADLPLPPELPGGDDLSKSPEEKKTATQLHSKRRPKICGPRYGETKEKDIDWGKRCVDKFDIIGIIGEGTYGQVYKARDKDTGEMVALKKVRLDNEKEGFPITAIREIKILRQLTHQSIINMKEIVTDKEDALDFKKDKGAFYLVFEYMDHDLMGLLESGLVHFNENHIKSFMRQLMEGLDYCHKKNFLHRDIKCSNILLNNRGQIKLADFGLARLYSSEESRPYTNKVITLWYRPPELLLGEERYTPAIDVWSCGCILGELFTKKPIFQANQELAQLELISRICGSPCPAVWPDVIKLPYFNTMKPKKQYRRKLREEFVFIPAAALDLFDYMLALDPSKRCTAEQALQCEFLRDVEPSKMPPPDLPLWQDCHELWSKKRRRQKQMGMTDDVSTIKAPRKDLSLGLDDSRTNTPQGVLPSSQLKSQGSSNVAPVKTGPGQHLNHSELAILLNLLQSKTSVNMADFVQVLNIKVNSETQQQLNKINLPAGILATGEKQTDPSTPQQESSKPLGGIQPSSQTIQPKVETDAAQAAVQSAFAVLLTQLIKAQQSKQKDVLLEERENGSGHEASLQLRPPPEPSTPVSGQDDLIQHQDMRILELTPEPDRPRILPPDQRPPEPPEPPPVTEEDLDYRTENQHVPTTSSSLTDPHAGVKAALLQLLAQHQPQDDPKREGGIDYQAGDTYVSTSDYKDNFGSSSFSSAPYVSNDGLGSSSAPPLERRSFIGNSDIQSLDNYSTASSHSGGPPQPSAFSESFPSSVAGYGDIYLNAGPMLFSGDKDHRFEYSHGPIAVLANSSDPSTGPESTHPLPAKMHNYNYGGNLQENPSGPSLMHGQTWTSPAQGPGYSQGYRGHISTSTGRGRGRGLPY
T6 sequence (P24723 whole entry): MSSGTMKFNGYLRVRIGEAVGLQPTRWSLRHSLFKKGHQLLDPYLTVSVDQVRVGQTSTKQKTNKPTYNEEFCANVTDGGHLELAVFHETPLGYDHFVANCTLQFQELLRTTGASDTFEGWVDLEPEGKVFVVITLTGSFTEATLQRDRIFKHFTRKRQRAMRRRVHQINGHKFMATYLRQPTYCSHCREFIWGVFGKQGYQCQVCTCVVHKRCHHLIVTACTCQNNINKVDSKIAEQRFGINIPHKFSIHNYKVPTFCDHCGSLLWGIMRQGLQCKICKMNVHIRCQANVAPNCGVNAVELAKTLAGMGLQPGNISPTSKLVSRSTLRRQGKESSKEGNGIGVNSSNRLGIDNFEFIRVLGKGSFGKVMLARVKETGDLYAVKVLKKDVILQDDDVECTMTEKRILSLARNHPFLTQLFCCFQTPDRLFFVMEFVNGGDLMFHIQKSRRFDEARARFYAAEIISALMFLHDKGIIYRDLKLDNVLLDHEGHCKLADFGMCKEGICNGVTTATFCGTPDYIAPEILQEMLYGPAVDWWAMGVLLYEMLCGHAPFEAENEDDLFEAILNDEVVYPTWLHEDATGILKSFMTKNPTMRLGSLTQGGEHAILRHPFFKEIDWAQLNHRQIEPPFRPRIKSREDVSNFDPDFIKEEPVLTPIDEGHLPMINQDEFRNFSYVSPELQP
T8 sequence (Q13523 whole entry): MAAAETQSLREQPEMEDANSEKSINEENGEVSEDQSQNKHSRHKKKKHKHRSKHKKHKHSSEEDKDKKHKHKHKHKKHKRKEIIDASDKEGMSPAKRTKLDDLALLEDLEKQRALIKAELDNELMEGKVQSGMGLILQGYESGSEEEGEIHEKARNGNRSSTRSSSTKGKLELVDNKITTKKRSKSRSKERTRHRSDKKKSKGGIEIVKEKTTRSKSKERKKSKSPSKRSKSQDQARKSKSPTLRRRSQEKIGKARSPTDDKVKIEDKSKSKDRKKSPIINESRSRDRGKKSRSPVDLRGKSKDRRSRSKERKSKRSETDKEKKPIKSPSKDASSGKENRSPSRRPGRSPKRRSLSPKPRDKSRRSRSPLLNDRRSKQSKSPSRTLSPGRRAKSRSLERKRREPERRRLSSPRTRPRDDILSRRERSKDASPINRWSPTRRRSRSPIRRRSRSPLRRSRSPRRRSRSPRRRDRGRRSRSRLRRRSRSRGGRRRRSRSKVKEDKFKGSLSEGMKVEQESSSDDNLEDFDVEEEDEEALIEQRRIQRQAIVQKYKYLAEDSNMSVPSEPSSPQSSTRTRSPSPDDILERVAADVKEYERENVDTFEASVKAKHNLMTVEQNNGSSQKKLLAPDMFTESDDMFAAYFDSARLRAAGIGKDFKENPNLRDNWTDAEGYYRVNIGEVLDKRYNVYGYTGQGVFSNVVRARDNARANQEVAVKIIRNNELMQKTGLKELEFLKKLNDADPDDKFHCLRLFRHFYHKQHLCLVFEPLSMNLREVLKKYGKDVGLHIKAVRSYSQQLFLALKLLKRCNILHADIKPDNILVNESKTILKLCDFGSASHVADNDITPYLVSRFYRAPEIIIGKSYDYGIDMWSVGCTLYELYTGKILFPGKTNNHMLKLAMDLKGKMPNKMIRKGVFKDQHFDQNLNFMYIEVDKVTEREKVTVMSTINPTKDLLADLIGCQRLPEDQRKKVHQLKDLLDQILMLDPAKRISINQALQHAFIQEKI

**Q.** With `COc1cc2ncnc(Nc3cccc(Cl)c3F)c2cc1OCCON1CCN(C)CC1` [7a] as the compound, how does the Micronucleus [1] read?
**A.** Negative

**Q.** What about the P-gp efflux status (MDCKII-MDR1 cells) of the same compound?
**A.** Not a P-gp Substrate

**Q.** What about the AMES [2] of the same compound?
**A.** Negative

**Q.** What about the “Abraham ANMR Value (aniline N-H)” value [3] of the same compound?
**A.** > 0.30 and 0.31

**Q.** Which remaining binding at 1 µM (PRKCI) does the source give for `COc1cc2c(Nc3ccc(Cl)c(OC)n3)c(C#N)cnc2cc1OCCON1CCN(C)CC1` [16a, 4-((5-Chloro-6-methoxypyridin-2-yl)amino)-6-methoxy-7-(2-((4-methylpiperazin-1-yl)oxy)ethoxy)quinoline-3-carbonitrile] here?
**A.** 61%

**Q.** What about the remaining binding at 1 µM (PRKD1) of the same compound?
**A.** 78%

**Q.** What about the remaining binding at 1 µM (CDC2L5) of the same compound?
**A.** 100%

**Q.** What about the remaining binding at 1 µM (PKNB(M.tuberculosis)) of the same compound?
**A.** 53%

**Q.** And the remaining binding at 1 µM (PRKCD)?
**A.** 42%

**Q.** What about the remaining binding at 1 µM (PRKCH) of the same compound?
**A.** 84%

**Q.** And the remaining binding at 1 µM (PRKCQ)?
**A.** 30%

**Q.** What about the remaining binding at 1 µM (PRP4) of the same compound?
**A.** 33%

**Q.** What about the remaining binding at 1 µM (PRKCE) of the same compound?
**A.** 70%

**Q.** What about the remaining binding at 1 µM (PRKD3) of the same compound?
**A.** 58%

**Q.** And the remaining binding at 1 µM (PFCDPK1(P.falciparum))?
**A.** 18%

**Q.** And the remaining binding at 1 µM (PFPK5(P.falciparum))?
**A.** 100%

**Q.** Which “Aq. Sol.” value [4] does the source give for `COc1cc(Nc2c(C#N)cnc3cc(OCCCN4CCN(C)CC4)c(OC)cc23)c(Cl)cc1Cl` [Bosutinib, bosutinib] here?
**A.** 14 µM

**Q.** What about the logD7.4 [5] of the same compound?
**A.** 3.1

**Q.** And the “Papp(a-b)” value (MDCKII-MDR1 cells; Table S7)?
**A.** 0.38 10-6 cm/s

**Q.** What about the “Recovery% (AP-BL)” value (MDCKII-MDR1 cells; Table S7) of the same compound?
**A.** 56.02%

**Q.** And the “Recovery% (BL-AP)” value (MDCKII-MDR1 cells; Table S7)?
**A.** 65.52%

**Q.** And the “MDCKII-MDR1 Papp (a-b)” value (MDCKII-MDR1 cells; a-b)?
**A.** 0.4 ×10⁻⁶ cm/s

**Q.** And the P-gp efflux status (MDCKII-MDR1 cells)?
**A.** P-gp Substrate

**Q.** What about the “%Recovery” value [6] of the same compound?
**A.** 94.01%

**Q.** And the “%Unbound” value [6]?
**A.** 4.52%

**Q.** And the P-gp efflux status (P-glycoprotein (P-gp))?
**A.** P-gp Substrate

**Q.** What about the “Remaining Percentages” value ([7]; 0.5 min) of the same compound?
**A.** 100.00%

**Q.** What about the “Remaining Percentages” value ([7]; 15 min) of the same compound?
**A.** 73.99%

**Q.** What about the “Remaining Percentages” value ([7]; 60 min) of the same compound?
**A.** 53.95%

**Q.** What about the “Remaining Percentages” value ([7]; 90 min) of the same compound?
**A.** 34.15%

**Q.** What about the “Remaining Percentages” value ([7]; 120 min) of the same compound?
**A.** 20.73%
